In ChEMBL document CHEMBL6103594, “Synthesis and evolution of 16-membered macrolide carrimycin derivatives as a novel class of anti-HCoV-OC43 agents targeting viral FSE RNA” (Eur J Med Chem, 2025):

Experiments:
[1] = Selectivity index, ratio of CC50 for cytotoxicity against human NCI-H460 cells to EC50 for antiviral activity against HCoV-OC43 infected in human NCI-H460 cells; format: toxicity, cell-based, NCI-460; conditions: read-out: Ratio CC50/EC50
Human coronavirus OC43 = experiment: Antiviral activity against HCoV-OC43 infected in human NCI-H460 cells incubated for 72 hrs by CCK8 assay; format: functional, organism-based; conditions: Betacoronavirus 1, NCI-H460, 72 h
[2] = Cytotoxicity against human NCI-H460 cells incubated for 72 hrs by CCK8 assay; format: toxicity, cell-based; conditions: read-out: EC50

SMILES | selectivity ratio [1] | EC50 (Human coronavirus OC43) [µM] | CC50 at 72 h [2] [µM]
CO[C@@H]1[C@@H](O[C@@H]2O[C@H](C)[C@@H](O[C@H]3C[C@@](C)(O)[C@@H](O)[C@H](C)O3)[C@H](N(C)C)[C@H]2OC(=O)CC(C)C)[C@@H](CC=O)C[C@@H](C)[C@@H](O[C@H]2CC[C@H](N(C)C)[C@@H](C)O2)/C=C/C=C/C[C@@H](C)OC(=O)C[C@H]1O | 3.5 | 4.82 | 17.1
CCCC(=O)O[C@H]1[C@H](O[C@H]2[C@@H](CC=O)C[C@@H](C)[C@@H](O[C@H]3CC[C@H](N(C)C)[C@@H](C)O3)/C=C/C=C/C[C@@H](C)OC(=O)C[C@@H](O)[C@@H]2OC)O[C@H](C)[C@@H](O[C@H]2C[C@@](C)(O)[C@@H](O)[C@H](C)O2)[C@@H]1N(C)C | 7.8 | 8.73 | 68
CO[C@@H]1[C@@H](O[C@@H]2O[C@H](C)[C@@H](O[C@H]3C[C@@](C)(O)[C@@H](OC(=O)Cc4ccc(Cl)cc4)[C@H](C)O3)[C@H](N(C)C)[C@H]2OC(C)=O)[C@@H](CC=O)C[C@@H](C)[C@@H](O[C@H]2CC[C@H](N(C)C)[C@@H](C)O2)/C=C/C=C/C[C@@H](C)OC(=O)C[C@H]1O | < 1.2 | > 6.25 | 7.4
COc1ccc(CC(=O)O[C@H]2[C@H](C)O[C@@H](O[C@H]3[C@H](N(C)C)[C@@H](O)[C@H](O[C@H]4[C@@H](CC=O)C[C@@H](C)[C@@H](O[C@H]5CC[C@H](N(C)C)[C@@H](C)O5)/C=C/C=C/C[C@@H](C)OC(=O)C[C@@H](O)[C@@H]4OC)O[C@@H]3C)C[C@@]2(C)O)cc1 | < 2.2 | > 12.5 | 27
CO[C@@H]1[C@@H](O[C@@H]2O[C@H](C)[C@@H](O[C@H]3C[C@@](C)(O)[C@@H](OC(=O)CC(C)C)[C@H](C)O3)[C@H](N(C)C)[C@H]2OC(C)=O)[C@@H](CC=O)C[C@@H](C)[C@@H](O[C@H]2CC[C@H](N(C)C)[C@@H](C)O2)/C=C/C=C/C[C@@H](C)OC(=O)C[C@H]1O | 3.3 | 7.89 | 25.7
CO[C@@H]1[C@@H](O[C@@H]2O[C@H](C)[C@@H](O[C@H]3C[C@@](C)(O)[C@@H](O)[C@H](C)O3)[C@H](N(C)C)[C@H]2OC(=O)CCCc2ccccc2)[C@@H](CC=O)C[C@@H](C)[C@@H](O[C@H]2CC[C@H](N(C)C)[C@@H](C)O2)/C=C/C=C/C[C@@H](C)OC(=O)C[C@H]1O | 3.3 | 11.9 | 39.3
CO[C@@H]1[C@@H](O[C@@H]2O[C@H](C)[C@@H](O[C@H]3C[C@@](C)(O)[C@@H](O)[C@H](C)O3)[C@H](N(C)C)[C@H]2OC(=O)CCc2ccccc2)[C@@H](CC=O)C[C@@H](C)[C@@H](O[C@H]2CC[C@H](N(C)C)[C@@H](C)O2)/C=C/C=C/C[C@@H](C)OC(=O)C[C@H]1O | 4.8 | 3.89 | 18.9
CO[C@@H]1[C@@H](O[C@@H]2O[C@H](C)[C@@H](O[C@H]3C[C@@](C)(O)[C@@H](O)[C@H](C)O3)[C@H](N(C)C)[C@H]2OC(=O)c2ccc(F)cc2C(F)(F)F)[C@@H](CC=O)C[C@@H](C)[C@@H](O[C@H]2CC[C@H](N(C)C)[C@@H](C)O2)/C=C/C=C/C[C@@H](C)OC(=O)C[C@H]1O | 3 | 1.2 | 3.54
CO[C@@H]1[C@@H](O[C@@H]2O[C@H](C)[C@@H](O[C@H]3C[C@@](C)(O)[C@@H](O)[C@H](C)O3)[C@H](N(C)C)[C@H]2OC(=O)C2CCCCC2)[C@@H](CC=O)C[C@@H](C)[C@@H](O[C@H]2CC[C@H](N(C)C)[C@@H](C)O2)/C=C/C=C/C[C@@H](C)OC(=O)C[C@H]1O | < 1.2 | > 12.5 | 15
